Target: T1, histamine H4 receptor (Homo sapiens, UniProt Q9H3N8)
T1 construct: expressed in transfected cells; host or cells: CHO cells
Experiment: H4 binding, method 1 ([3H]-histamine filtration binding on CHO cell membranes)
Conditions: for Ki: H4 binding, method 1, Ki calculated from IC50 (Cheng-Prussoff); for Method 1, activity at top dose (10 μM): top dose 10 μM
Method in brief: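 Membranes from CHO cells expressing human H4 receptor (20-35 μg/well) incubated 90 min at room temperature with 3 nM [3H]-histamine in 50 mM Tris-HCl pH 7.4, ± competitor. Bound label separated by filtration on PEI-soaked GF/B filters and counted by scintillation; non-specific binding with 10 μM JNJ7777120.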

| Ki [nM] | Compound | other results |
| --- | --- | --- |
| 626 | CNC1CN(c2cc(N3CCOC[C@H]3C)nc(N)n2)C1 [Example 263, 4-[3-(Methylamino)azetidin-1-yl]-6-[(3R)-3-methylmorpholiN^4-yl]pyrimidin-2-amine] | – |
| 704 | CCCNc1cc(N2CCC(C)(N)C2)nc(N)n1 (centres unmarked) [Example 264, 6-(3-Amino-3-methylpyrrolidin-1-yl)-N^4-propylpyrimidine-2,4-diamine] | – |
| 705 | CCNc1cc(N2CCC(C)(N)C2)nc(N)n1 (centres unmarked) [Example 265, 6-(3-Amino-3-methylpyrrolidin-1-yl)-N^4-ethylpyrimidine-2,4-diamine] | – |
| 708 | CCCNc1cc(N2CCC(N)CC2)nc(N)n1 [Example 266, 6-(4-Aminopiperidin-1-yl)-N^4-propylpyrimidine-2,4-diamine] | – |
| 715 | C[C@@H]1CN(c2cc(NCc3cccc(F)c3)nc(N)n2)CCN1 [Example 267, N^4-(3-Fluorobenzyl)-6-[(3R)-3-methylpiperazin-1-yl]pyrimidine-2,4-diamine] | – |
| – | CNC1CN(c2cc(N3CCOCC3)nc(N)n2)C1 [Example 268, 4-[3-(Methylamino)azetidin-1-yl]-6-morpholin-4-ylpyrimidin-2-amine] | inhibition at 10 µM (1.5 h): 16% |
| 839 | Nc1nc(NC2CC2)cc(N2CCC(N)CC2)n1 [Example 269, 6-(4-Aminopiperidin-1-yl)-N^4-cyclopropylpyrimidine-2,4-diamine] | – |
| 870 | CN[C@@H]1CCN(c2cc(NCc3c(F)cccc3F)nc(N)n2)C1 [Example 271, N^4-(2,6-Difluorobenzyl)-6-[(3R)-3-(methylamino)pyrrolidin-1-yl]pyrimidine-2,4-diamine] | – |
| 901 | CN[C@@H]1CCN(c2cc(NCc3cccc(F)c3F)nc(N)n2)C1 [Example 272, N^4-(2,3-Difluorobenzyl)-6-[(3R)-3-(methylamino)pyrrolidin-1-yl]pyrimidine-2,4-diamine] | – |
| 950 | CN[C@@H]1CCN(c2cc(NCc3cc(F)cc(F)c3)nc(N)n2)C1 [Example 273, N^4-(3,5-Difluorobenzyl)-6-[(3R)-3-(methylamino)pyrrolidin-1-yl]pyrimidine-2,4-diamine] | – |
| 1070 | CC(C)(C)CCNc1cc(N[C@H]2CCN(Cc3ccc(CO)o3)C2)ncn1 [Example 274, (5-{[(3S)-3-({6-[(3,3-Dimethylbutyl)amino]pyrimidin-4yl}amino)pyrrolidin--1-yl]methyl}-2-furyl)methanol] | – |
| 1160 | CN[C@@H]1CCN(c2cc(N3CC(F)(F)C3)nc(N)n2)C1 [Example 275, 4-(3,3-Difluoroazetidin-1-yl)-6-[(3R)-3-(methylamino)pyrrolidin-1-yl]pyrimidin-2-amine] | – |
| – | CNC1CN(c2cc(NCC3CC3)nc(NCC3CC3)n2)C1 [Example 276, N,N′-Bis(cyclopropylmethyl)-6-[3-(methylamino)azetidin-1-yl]pyrimidine-2,4-diamine] | Method 1, % at 3.16 μM (at 3.16 μM): 14% at 3.16 μM |
| 1230 | CN[C@@H]1CCN(c2cc(NCc3ccc(F)c(F)c3)nc(N)n2)C1 [Example 277, N^4-(3,4-Difluorobenzyl)-6-[(3R)-3-(methylamino)pyrrolidin-1-yl]pyrimidine-2,4-diamine] | – |
| 1260 | CNC1CCCN(c2cc(NCC(C)C)nc(N)n2)C1 (centres unmarked) [Example 278, N^4-Isobutyl-6-[3-(methylamino)piperidin-1-yl]pyrimidine-2,4-diamine] | – |
| 1430 | CC(C)(C)CCNc1cc(N2CCCNCC2)ncn1 [Example 280, 6-(1,4-Diazepan-1-yl)-N-(3,3-dimethylbutyl)pyrimidin-4-amine] | – |
| 1550 | c1ccc(CNc2cc(N[C@H]3CCNC3)ncn2)cc1 [Example 281, N-Benzyl-N′-[(3S)-pyrrolidin-3-yl]pyrimidine-4,6-diamine] | – |
| 1660 | CN[C@@H]1CCN(c2cc(N3CCOCC3)nc(N)n2)C1 [Example 282, 4-[(3R)-3-(Methylamino)pyrrolidin-1-yl]-6-morpholin-4-ylpyrimidin-2-amine] | – |
| 1700 | Nc1nc(NCC2CC2)cc(N2CCC(N)CC2)n1 [Example 283, 6-(4-Aminopiperidin-1-yl)-N^4-(cyclopropylmethyl)pyrimidine-2,4-diamine] | – |
| 1720 | CNc1cc(N2CCC(N)CC2)nc(N)n1 [Example 284, 6-(4-Aminopiperidin-1-yl)-N^4-methylpyrimidine-2,4-diamine] | – |
| 1940 | CN[C@@H]1CCN(c2cc(NC(C)C)nc(N)n2)C1 [Example 286, N^4-lsopropyl-6-[(3R)-3-(methylamino)pyrrolidin-1-yl]pyrimidine-2,4-diamine] | – |
| 2000 | CC(C)(C)CNc1cc(N2CC(N3CCOCC3)C2)nc(N)n1 [Example 287, N^4-(2,2-Dimethylpropyl)-6-(3-morpholin-4-ylazetidin-1-yl)pyrimidine-2,4-diamine] | – |

| Ki [nM] | Compound | other results |
| --- | --- | --- |
| 2400 | CN1CCCC(Nc2cc(NCCC(C)(C)C)ncn2)C1 (centres unmarked) [Example 288, N-(3,3-Dimethylbutyl)-N′-(1-methylpiperidin-3-yl)pyrimidine-4,6-diamine] | – |
| – | CC(C)(C)CCNc1cc(N[C@H]2CCN(Cc3ccccc3)C2)ncn1 [Example 289, N-[(3S)-1-Benzylpyrrolidin-3-yl]-N′-(3,3-dimethylbutyl)pyrimidine-4,6-diamine] | inhibition at 10 µM (1.5 h): 44% |
| – | c1nc(NC[C@@H]2CCCO2)cc(N[C@H]2CCNC2)n1 [Example 290, N-[(3S)-Pyrrolidin-3-yl]-N′-[(2S)-tetrahydrofuran-2-ylmethyl]pyrimidine-4,6-diamine] | inhibition at 10 µM (1.5 h): 24% |
| – | CN[C@@H]1CCN(c2ncnc(NCC3CC3)c2C)C1 [Example 291, N-(Cyclopropylmethyl)-5-methyl-6-[(3R)-3-(methylamino)pyrrolidin-1-yl]pyrimidin-4-amine] | Method 1, activity at top dose (6.3 μM) (top dose 6.3 μM): No activity at top |
| 2590 | CC(C)(C)CCNc1cc(N2CCC(N)C2)ncn1 (centres unmarked) [Example 292, 6-(3-Aminopyrrolidin-1-yl)-N-(3,3-dimethylbutyl)pyrimidin-4-amine] | – |
| 3040 | CN1CCN(c2cc(N3CCOCC3)ncn2)CC1 [Example 293, 4-[6-(4-Methylpiperazin-1-yl)pyrimidin-4-yl]morpholine] | – |
| – | CNC1CCCN(c2cc(NCC3CC3)nc(N)n2)C1 (centres unmarked) [Example 294, N^4-(Cyclopropylmethyl)-6-[3-(methylamino)piperidin-1-yl]pyrimidine-2,4-diamine] | inhibition at 20 µM (1.5 h): 91% |
| 3180 | CNC1CN(c2cc(N3CCCCC3)nc(N)n2)C1 [Example 295, 4-[3-(Methylamino)azetidin-1-yl]-6-piperidin-1-ylpyrimidin-2-amine] | – |
| 3300 | CN1CC[C@H](Nc2cc(NCCC(C)(C)C)ncn2)C1 [Example 296, N-(3,3-Dimethylbutyl)-N′-[(3S)-1-methylpyrrolidin-3-yl]pyrimidine-4,6-diamine] | – |
| – | CC(C)(C)CNc1cc(N2C[C@H]3C[C@@]3(N)C2)ncn1 [Example 297, (1S,5R)-3-{6-[(2,2-Dimethylpropyl)amino]pyrimidin-4-yl}-3-azabicyclo[3.1.0]hexan-1-amine] | inhibition at 10 µM (1.5 h): 30% |
| – | CNC1(C)CN(c2cc(NCCC(C)(C)C)nc(N)n2)C1 [Example 298, N^4-(3,3-Dimethylbutyl)-6-[3-methyl-3-(methylamino)azetidin-1-yl]pyrimidine-2,4-diamine] | Method 1, activity at top dose (10 μM): No activity at top |
| – | Cn1ccnc1CN1CCN(c2cc(NCCC(C)(C)C)ncn2)CC1 [Example 299, N-(3,3-Dimethylbutyl)-6-{4-[(1-methyl-1H-imidazol-2-yl)methyl]piperazin-1-yl}pyrimidin-4-amine] | Method 1, activity at top dose (10 μM): No activity at top |
| – | CN(C)C1[C@H]2CN(c3cc(NCCC(C)(C)C)ncn3)C[C@@H]12 (stereo partly drawn) [Example 300, (1R*,5S*,6s*)-3-{6-[(3,3-Dimethylbutyl)amino]pyrimidin-4-yl}-N,N-dimethyl-3-azabicyclo[3.1.0]hexan-6-amine] | Method 1, % at 10 μM: 35% at 10 μM |
| – | CC(C)(C)CCNc1cc(N2CCC(N3CCCC3)CC2)ncn1 [Example 301, N-(3,3-Dimethylbutyl)-6-(4-pyrrolidin-1-ylpiperidin-1-yl)pyrimidin-4-amine] | Method 1, activity at top dose (10 μM): No activity at top |
| – | CCN(CC)C1CCN(c2cc(NCC(C)(C)C)ncn2)C1 (centres unmarked) [Example 302, 6-[3-(Diethylamino)pyrrolidin-1-yl]-N-(2,2-dimethylpropyl)pyrimidin-4-amine] | inhibition at 10 µM (1.5 h): 20% |
| – | CC(C)(C)CNc1cc(N2CCN(C3CNC3)CC2)ncn1 [Example 303, 6-(4-Azetidin-3-ylpiperazin-1-yl)-N-(2,2-dimethylpropyl)pyrimidin-4-amine] | inhibition at 10 µM (1.5 h): 38% |
| – | c1nc(NCC2CC2)cc(N2CCN(C3CCCCC3)CC2)n1 [Example 305, 6-(4-Cyclohexylpiperazin-1-yl)-N-(cyclopropylmethyl)pyrimidin-4-amine] | Method 1, activity at top dose (10 μM): No activity at top |
| – | CCN(CC)CCN(C)c1cc(NCC2CC2)ncn1 [Example 306, N′-(Cyclopropylmethyl)-N-[2-(diethylamino)ethyl]-N-methylpyrimidine-4,6-diamine] | inhibition at 10 µM (1.5 h): 18% |
| – | CC(C)(C)CCNc1cc(N2CCN(CCO)CC2)ncn1 [Example 307, 2-(4-{6-[(3,3-Dimethylbutyl)amino]pyrimidin-4-yl}piperazin-1-yl)ethanol] | inhibition at 10 µM (1.5 h): 24% |
| – | c1nc(NCC2CC2)cc(N2CCN(C3CNC3)CC2)n1 [Example 308, 6-(4-Azetidin-3-ylpiperazin-1-yl)-N-(cyclopropylmethyl)pyrimidin-4-amine] | Method 1, activity at top dose (10 μM): No activity at top |
| – | CN[C@H]1[C@@H]2CN(c3cc(NCCC(C)(C)C)nc(N)n3)C[C@@H]21 [Example 309, N^4-(3,3-Dimethylbutyl)-6-[(1R,5S,6s)-6-(methylamino)-3-azabicyclo[3.1.0]hex-3-yl]pyrimidine-2,4-diamine] | Method 1, % at 10 μM: 26% at 10 μM |

| Compound | Ki [nM] | other results |
| --- | --- | --- |
| c1nc(NCC2CC2)cc(N2CCNCC2)n1 [Example 285, N-(Cyclopropylmethyl)-6-piperazin-1-ylpyrimidin-4-amine] | 1800 | – |
